Source: patent US12492173B2, “Herbicidal substituted N-tetrazolyl aryl carboxamides” (Bayer Aktiengesellschaft, priority 2019, dated 2025)

What was measured:
Assay type in all cases: in vivo
Hordeum murinum [1] = test: Pre-emergence herbicidal action, HORMU; settings: dosage 320 g/ha; for herbicidal activity HORMU: scored visually after 3 weeks vs untreated controls (100% = plants have died)
Description: (§1) 1. Pre-Emergence Herbicidal Action Against Harmful Plants Seeds of monocotyledonous and dicotyledonous weed plants and crop plants are laid out in sandy loam soil in wood-fiber pots and covered with soil. The compounds of the invention, formulated in the form of wettable powders (WP) or as emulsion concentrates (EC), are then applied to the surface of the covering soil in the form of an aqueous suspension or emulsion at a water application rate equating to 600 to 800 l/ha, with addition of 0.2% wetting agent. After the treatment, the pots are placed in a greenhouse and kept under good growth conditions for the trial plants. The damage to the test plants is scored visually after a test period of 3 weeks by comparison with untreated controls (herbicidal activity in percent (%): 100% activity=the plants have died, 0% activity=like control plants). […] The tables below illustrate, in an exemplary manner, the […] herbicidal action of the compounds according to the invention, the herbicidal activity being stated in percent. [table] In the experiments that follow, herbicidal action of numerous inventive compounds and the known compounds that are structurally closest from D1 (WO 2012/028579 A1) and D2 (WO 2018/202535 A1) were compared under the above-specified conditions by the pre-emergence and post-emergence method. The example numbers given in the tables relate to the compounds disclosed in the respective documents. In addition to the compounds disclosed in D1 and D2, the following compounds V-1 to V-14 that are encompassed by D1 or D2 but are not compounds specified therein were used in the comparative experiments: • V-1: 2-(methylsulfanyl)-3-(methylsulfinyl)-N-(1-methyl-1H-tetrazol-5-yl)-4-(trifluoromethyl)benzamide • V-2: 2-(methylsulfanyl)-3-(methylsulfonyl)-N-(1-methyl-1H-tetrazol-5-yl)-4-(trifluoromethyl)benzamide • V-3: 2,3-bis(ethylsulfanyl)-N-(1-methyl-1H-tetrazol-5-yl)-4-(trifluoromethyl)benzamide • V-4: 2-chloro-3-(ethylsulfanyl)-N-(1-methyl-1H-tetrazol-5-yl)-4-(trifluoromethyl)benzamide • V-5: 2-chloro-4-iodo-3-(methylsulfanyl)-N-(1-methyl-1H-tetrazol-5-yl)benzamide • V-6: 2-chloro-4-iodo-3-(methylsulfinyl)-N-(1-methyl-1H-tetrazol-5-yl)benzamide • V-7: 2-chloro-4-iodo-3-(methylsulfonyl)-N-(1-methyl-1H-tetrazol-5-yl)benzamide • V-8: 2-bromo-3-(methylsulfanyl)-N-(1-methyl-1H-tetrazol-5-yl)-4-(trifluoromethyl)benzamide • V-9: 2-bromo-3-(methylsulfinyl)-N-(1-methyl-1H-tetrazol-5-yl)-4-(trifluoromethyl)benzamide • V-10: 2-bromo-3-(methylsulfonyl)-N-(1-methyl-1H-tetrazol-5-yl)-4-(trifluoromethyl)benzamide • V-11: 2-bromo-3-(ethylsulfanyl)-N-(1-methyl-1H-tetrazol-5-yl)-4-(trifluoromethyl)benzamide • V-12: 2-bromo-3-(ethylsulfinyl)-N-(1-methyl-1H-tetrazol-5-yl)-4-(trifluoromethyl)benzamide • V-13: 2-bromo-3-(ethylsulfonyl)-N-(1-methyl-1-1H-tetrazol-5-yl)-4-(trifluoromethyl)benzamide • V-14: 2-cyclopropyl-3-(ethylsulfanyl)-N-(1-methyl-1H-tetrazol-5-yl)-4-(trifluoromethyl)benzamide Herbicidal Pre-Emergence Action: […]

Digitaria sanguinalis [2] = test: Post-emergence herbicidal action, DIGSA; set-up: key: % herbicidal action: 100 = plants died, 0 = like control; settings: Dosage 80 g/ha
Protocol: (§2) [table] 2. Post-Emergence Herbicidal Action Against Harmful Plants Seeds of monocotyledonous and dicotyledonous weed and crop plants are laid out in sandy loam soil in wood-fiber pots, covered with soil and cultivated in a greenhouse under good growth conditions. 2 to 3 weeks after sowing, the test plants are treated at the one-leaf stage. The compounds of the invention, formulated in the form of wettable powders (WP) or as emulsion concentrates (EC), are then sprayed onto the green parts of the plants in the form of an aqueous suspension or emulsion at a water application rate equating to 600 to 800 l/ha, with addition of 0.2% wetting agent. After the test plants have been left to stand in the greenhouse under optimal growth conditions for about 3 weeks, the action of the preparations is assessed visually in comparison to untreated controls (herbicidal action in percent (%): 100% activity=the plants have died, 0% activity=like control plants). […] The tables below illustrate, in an exemplary manner, the post-emergence herbicidal action of the compounds according to the invention, the herbicidal activity being stated in percent. In the experiments that follow, herbicidal action of numerous inventive compounds and the known compounds that are structurally closest from D1 (WO 2012/028579 A1) and D2 (WO 2018/202535 A1) were compared under the above-specified conditions by the pre-emergence and post-emergence method. The example numbers given in the tables relate to the compounds disclosed in the respective documents. In addition to the compounds disclosed in D1 and D2, the following compounds V-1 to V-14 that are encompassed by D1 or D2 but are not compounds specified therein were used in the comparative experiments: • V-1: 2-(methylsulfanyl)-3-(methylsulfinyl)-N-(1-methyl-1H-tetrazol-5-yl)-4-(trifluoromethyl)benzamide • V-2: 2-(methylsulfanyl)-3-(methylsulfonyl)-N-(1-methyl-1H-tetrazol-5-yl)-4-(trifluoromethyl)benzamide • V-3: 2,3-bis(ethylsulfanyl)-N-(1-methyl-1H-tetrazol-5-yl)-4-(trifluoromethyl)benzamide • V-4: 2-chloro-3-(ethylsulfanyl)-N-(1-methyl-1H-tetrazol-5-yl)-4-(trifluoromethyl)benzamide • V-5: 2-chloro-4-iodo-3-(methylsulfanyl)-N-(1-methyl-1H-tetrazol-5-yl)benzamide • V-6: 2-chloro-4-iodo-3-(methylsulfinyl)-N-(1-methyl-1H-tetrazol-5-yl)benzamide • V-7: 2-chloro-4-iodo-3-(methylsulfonyl)-N-(1-methyl-1H-tetrazol-5-yl)benzamide • V-8: 2-bromo-3-(methylsulfanyl)-N-(1-methyl-1H-tetrazol-5-yl)-4-(trifluoromethyl)benzamide • V-9: 2-bromo-3-(methylsulfinyl)-N-(1-methyl-1H-tetrazol-5-yl)-4-(trifluoromethyl)benzamide • V-10: 2-bromo-3-(methylsulfonyl)-N-(1-methyl-1H-tetrazol-5-yl)-4-(trifluoromethyl)benzamide • V-11: 2-bromo-3-(ethylsulfanyl)-N-(1-methyl-1H-tetrazol-5-yl)-4-(trifluoromethyl)benzamide • V-12: 2-bromo-3-(ethylsulfinyl)-N-(1-methyl-1H-tetrazol-5-yl)-4-(trifluoromethyl)benzamide • V-13: 2-bromo-3-(ethylsulfonyl)-N-(1-methyl-1-1H-tetrazol-5-yl)-4-(trifluoromethyl)benzamide • V-14: 2-cyclopropyl-3-(ethylsulfanyl)-N-(1-methyl-1H-tetrazol-5-yl)-4-(trifluoromethyl)benzamide Herbicidal Pre-Emergence Action: […]

Digitaria sanguinalis [3] = test: Pre-emergence herbicidal action, DIGSA; settings: dosage 320 g/ha, scored visually after 3 weeks vs untreated controls (100% = plants have died)
Description: as §1

Lolium multiflorum = test: Post-emergence herbicidal action, LOLMU; set-up: key: % herbicidal action: 100 = plants died, 0 = like control; settings: for Herbicidal action against LOLMU: comparative experiment
Protocol: as §2

Cyperus esculentus = test: Pre-emergence herbicidal action, CYPES; set-up: key: % activity: 100 = plants have died, 0 = like control plants; settings: comparative experiment
Summary of the method: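 Visual scoring after 3 weeks in the greenhouse, relative to untreated pots, gave percent activity, where 100% means dead plants and 0% equals controls. Treatment was a pre-emergence soil-surface spray of WP or EC formulations in water (600 to 800 l/ha, 0.2% wetting agent) over seeds covered in sandy loam.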

Hordeum murinum [4] = test: Post-emergence herbicidal action, HORMU; set-up: key: % herbicidal action: 100 = plants died, 0 = like control
Protocol: as §2

[5] = post-emergence, 20 g of a.i./ha

## COCC[S+]([O-])Cc1c(C(F)(F)F)ccc(C(=O)Nc2nnnn2C)c1Cl (racemic) [Example 1-306]
Hordeum murinum [1]
  herbicidal activity HORMU: 90%
Digitaria sanguinalis [2]
  herbicidal action DIGSA: 100
Digitaria sanguinalis [3]
  herbicidal activity DIGSA: 100%

## CC[S+]([O-])Cc1c(C(F)(F)F)ccc(C(=O)Nc2nnnn2C)c1Br (racemic) [Example 1-384]
Lolium multiflorum; post-emergence, dosage 80 g/ha
  herbicidal action LOLMU: 90%
Cyperus esculentus; 80 g of a.i./ha
  Herbicidal action against CYPES: 100

## CSCc1c(C(F)(F)F)ccc(C(=O)Nc2nnnn2C)c1C [Example 1-83]
Lolium multiflorum; post-emergence, dosage 80 g/ha
  herbicidal action LOLMU: 80%

## CSc1c(C(=O)Nc2nnnn2C)ccc(C(F)F)c1C[S+](C)[O-] (stereo not drawn) [Example 1-171]
Hordeum murinum [1]
  herbicidal activity HORMU: 80%
Digitaria sanguinalis [2]
  herbicidal action DIGSA: 100
Digitaria sanguinalis [3]
  herbicidal activity DIGSA: 100%

## CCSCc1c(C(F)(F)F)ccc(C(=O)Nc2nnnn2C)c1Cl [Example 1-299]
Lolium multiflorum; post-emergence, 5 g of a.i./ha
  Herbicidal action against LOLMU: 70
Lolium multiflorum; post-emergence, dosage 80 g/ha
  herbicidal action LOLMU: 90%
Cyperus esculentus; 20 g of a.i./ha
  Herbicidal action against CYPES: 90

## Cn1nnnc1NC(=O)c1ccc(C(F)(F)F)c(CSCC(F)(F)F)c1Cl [Example 1-311]
Hordeum murinum [1]
  herbicidal activity HORMU: 100%
Hordeum murinum [4]; Dosage 80 g/ha
  herbicidal action HORMU: 100

## Cn1nnnc1NC(=O)c1ccc(C(F)(F)F)c(CS(=O)(=O)CC2CC2)c1Cl [Example 1-316]
Hordeum murinum [1]
  herbicidal activity HORMU: 90%
Digitaria sanguinalis [2]
  herbicidal action DIGSA: 100
Digitaria sanguinalis [3]
  herbicidal activity DIGSA: 100%

## CSCc1c(C(F)F)ccc(C(=O)Nc2nnnn2C)c1Cl [Example 1-320]
Lolium multiflorum; Dosage 80 g/ha
  herbicidal action LOLMU: 80
Cyperus esculentus; 20 g of a.i./ha
  Herbicidal action against CYPES: 80

## Cn1nnnc1NC(=O)c1ccc(C(F)F)c(CS(C)(=O)=O)c1Cl [Example 1-322]
Lolium multiflorum; post-emergence, dosage 80 g/ha
  herbicidal action LOLMU: 90%

## CCSCc1c(C(F)F)ccc(C(=O)Nc2nnnn2C)c1Cl [Example 1-323]
Lolium multiflorum; post-emergence, dosage 80 g/ha
  herbicidal action LOLMU: 90%

## CCS(=O)(=O)Cc1c(C(F)F)ccc(C(=O)Nc2nnnn2C)c1Cl [Example 1-325]
Lolium multiflorum; Dosage 80 g/ha
  herbicidal action LOLMU: 90

## CCSCc1c(C(F)(F)F)ccc(C(=O)Nc2nnnn2C)c1Br [Example 1-383]
Lolium multiflorum; post-emergence, dosage 80 g/ha
  herbicidal action LOLMU: 90%
Cyperus esculentus; 80 g of a.i./ha
  Herbicidal action against CYPES: 100

## CCS(=O)(=O)Cc1c(C(F)(F)F)ccc(C(=O)Nc2nnnn2C)c1Br [Example 1-385]
Lolium multiflorum; [5]
  Herbicidal action against LOLMU: 50
Lolium multiflorum; post-emergence, dosage 80 g/ha
  herbicidal action LOLMU: 80%

## CSCc1c(Cl)ccc(C(=O)Nc2nnnn2C)c1Cl [Example 1-559]
Lolium multiflorum; post-emergence, dosage 80 g/ha
  herbicidal action LOLMU: 100%

## CCSCc1c(C(F)(F)F)ccc(C(=O)Nc2nnnn2CC)c1C [Example 2-86]
Lolium multiflorum; post-emergence, dosage 80 g/ha
  herbicidal action LOLMU: 90%

## CCn1nnnc1NC(=O)c1ccc(C(F)(F)F)c(C[S+](C)[O-])c1SC (stereo not drawn) [Example 2-162]
Hordeum murinum [1]
  herbicidal activity HORMU: 90%

## CCn1nnnc1NC(=O)c1ccc(C(F)F)c(C[S+](C)[O-])c1SC (stereo not drawn) [Example 2-171]
Digitaria sanguinalis [2]
  herbicidal action DIGSA: 90
Digitaria sanguinalis [3]
  herbicidal activity DIGSA: 100%

## CCn1nnnc1NC(=O)c1ccc(C(F)(F)F)c(CSC)c1Cl [Example 2-296]
Lolium multiflorum; post-emergence, dosage 80 g/ha
  herbicidal action LOLMU: 90%

## CCn1nnnc1NC(=O)c1ccc(C(F)(F)F)c(C[S+](C)[O-])c1Cl (stereo not drawn) [Example 2-297]
Lolium multiflorum; post-emergence, dosage 80 g/ha
  herbicidal action LOLMU: 90%

## CCSCc1c(C(F)(F)F)ccc(C(=O)Nc2nnnn2CC)c1Cl [Example 2-299]
Lolium multiflorum; post-emergence, dosage 80 g/ha
  herbicidal action LOLMU: 90%

## CCn1nnnc1NC(=O)c1ccc(C(F)(F)F)c(CSCC(F)(F)F)c1Cl [Example 2-311]
Hordeum murinum [1]
  herbicidal activity HORMU: 80%
Hordeum murinum [4]; Dosage 80 g/ha
  herbicidal action HORMU: 80

## CCn1nnnc1NC(=O)c1ccc(C(F)F)c(CSC)c1Cl [Example 2-320]
Lolium multiflorum; Dosage 80 g/ha
  herbicidal action LOLMU: 80

## CCn1nnnc1NC(=O)c1ccc(C(F)F)c(CS(C)(=O)=O)c1Cl [Example 2-322]
Lolium multiflorum; post-emergence, dosage 80 g/ha
  herbicidal action LOLMU: 80%

## CCSCc1c(C(F)F)ccc(C(=O)Nc2nnnn2CC)c1Cl [Example 2-323]
Lolium multiflorum; post-emergence, dosage 80 g/ha
  herbicidal action LOLMU: 80%

## CCn1nnnc1NC(=O)c1ccc(I)c(C[S+](C)[O-])c1Cl (stereo not drawn) [Example 2-363]
Hordeum murinum [1]
  herbicidal activity HORMU: 100%
Hordeum murinum [4]; Dosage 80 g/ha
  herbicidal action HORMU: 90

## CCn1nnnc1NC(=O)c1ccc(C(F)(F)F)c(C[S+]([O-])CC)c1Br (stereo not drawn) [Example 2-384]
Lolium multiflorum; post-emergence, dosage 80 g/ha
  herbicidal action LOLMU: 80%

## CCCn1nnnc1NC(=O)c1ccc(C(F)(F)F)c(CS(C)(=O)=O)c1SC [Example 3-163]
Hordeum murinum [1]
  herbicidal activity HORMU: 90%
Hordeum murinum [4]; Dosage 80 g/ha
  herbicidal action HORMU: 80

## CCCn1nnnc1NC(=O)c1ccc(C(F)F)c(CSC)c1SC [Example 3-170]
Digitaria sanguinalis [2]
  herbicidal action DIGSA: 100
Digitaria sanguinalis [3]
  herbicidal activity DIGSA: 100%

## C=CCSCc1c(C(F)(F)F)ccc(C(=O)Nc2nnnn2CCC)c1Cl [Example 3-308]
Hordeum murinum [1]
  herbicidal activity HORMU: 80%

## CCCn1nnnc1NC(=O)c1ccc(C(F)(F)F)c(CSCC(F)(F)F)c1Cl [Example 3-311]
Hordeum murinum [4]; Dosage 80 g/ha
  herbicidal action HORMU: 90

## CCCn1nnnc1NC(=O)c1ccc(C(F)(F)F)c(CSCC2CC2)c1Cl [Example 3-314]
Hordeum murinum [1]
  herbicidal activity HORMU: 90%
Hordeum murinum [4]; post-emergence, dosage 80 g/ha
  herbicidal action HORMU: 90%

## CCCn1nnnc1NC(=O)c1ccc(C(F)F)c(CS(=O)(=O)CC)c1Cl [Example 3-325]
Hordeum murinum [1]
  herbicidal activity HORMU: 100%
Hordeum murinum [4]; Dosage 80 g/ha
  herbicidal action HORMU: 90

## CCCn1nnnc1NC(=O)c1ccc(I)c(C[S+](C)[O-])c1Cl (stereo not drawn) [Example 3-363]
Hordeum murinum [1]
  herbicidal action HORMU: 100%

## CCS(=O)(=O)c1c(C(F)(F)F)ccc(C(=O)Nc2nnnn2C)c1Br [Example V-13, 2-bromo-3-(ethylsulfonyl)-N-(1-methyl-1-1H-tetrazol-5-yl)-4-(trifluoromethyl)benzamide, reference compound]
Lolium multiflorum; [5]
  Herbicidal action against LOLMU: 0
